Active and inactive are the calls of the source. The calls are words filed in the database; no cut-off is given here.
Tests used:
Mus musculus [1] = assay: Toxicity in BALB/c nude mouse xenografted with human BGC823 cells assessed as tumor volume at 30 mg/kg, ip administered once in a week for two weeks starting from 6 days post tumor transplantation and measured every 3 days during compound dosing for 15 days (reference value: […]); conditions: in vivo, 360 h
A549 [2] = assay: Induction of apoptosis in human A549 cells assessed as late apoptotic cells at 75 nM after 24 hrs by Annexin V-FITC/propidium iodide staining based flow cytometry (reference value: 2.47%); type: functional
A549 [3] = assay: Induction of apoptosis in human A549 cells assessed as cell shrinkage after 24 hrs by phase contrast microscopy; type: functional, cell-based
Mus musculus [4] = assay: Toxicity in BALB/c nude mouse xenografted with human BGC823 cells assessed as body weight at 30 mg/kg, ip administered once in a week for two weeks starting from 6 days post tumor transplantation and measured every 3 days during compound dosing for 15 days (reference value: 23.6 g); type: organism-based; conditions: in vivo, 360 h
A549 [5] = assay: Induction of apoptosis in human A549 cells assessed as early apoptotic cells at 25 nM after 24 hrs by Annexin V-FITC/propidium iodide staining based flow cytometry (reference value: 0.50%); type: functional
A549 [6] = assay: Cell cycle arrest in human A549 cells assessed as accumulation at G0/G1 phase at 25 nM after 24 hrs by propidium iodide staining based flow cytometry (reference value: 58.84%); type: functional
A2780 = assay: Antiproliferative activity against human A2780 cells after 96 hrs by MTT assay; type: functional, cell-based; conditions: A2780, 96 h
A549 [7] = assay: Induction of apoptosis in human A549 cells assessed as caspase-3 level at 8 to 75 nM by Western blot method; type: functional, cell-based
BGC-823 [8] = assay: Antitumor activity against human BGC823 cells xenografted in BALB/c nude mouse assessed as tumor volume at 30 mg/kg, ip administered once in a week for two weeks starting from 6 days post tumor transplantation measured 27 to 30 days post tumor transplantation relative to control; type: functional
A549 [9] = assay: Induction of apoptosis in human A549 cells assessed as increase in cleaved caspase-3 level at 8 to 75 nM by Western blot method; type: functional, cell-based
A549 [10] = assay: Induction of apoptosis in human A549 cells assessed as viable cells at 75 nM after 24 hrs by Annexin V-FITC/propidium iodide staining based flow cytometry (reference value: 89.41%); type: functional; conditions: A549, 24 h, read-out: Activity
A549 [11] = assay: Induction of apoptosis in human A549 cells assessed as early apoptotic cells at 75 nM after 24 hrs by Annexin V-FITC/propidium iodide staining based flow cytometry (reference value: 0.50%); type: functional
A549 [12] = assay: Induction of apoptosis in human A549 cells assessed as late apoptotic cells at 25 nM after 24 hrs by Annexin V-FITC/propidium iodide staining based flow cytometry (reference value: 2.47%); type: functional
A549 [13] = assay: Cell cycle arrest in human A549 cells assessed as accumulation at S phase at 25 nM after 24 hrs by propidium iodide staining based flow cytometry (reference value: 32.80%); type: functional
Mus musculus [14] = assay: Toxicity in Kunming mouse implanted with mouse H22 cell assessed as survival at 40 mg/kg, ip administered on day 1 and day 5; type: organism-based; conditions: in vivo
Mus musculus [15] = assay: Toxicity in BALB/c nude mouse xenografted with human BGC823 cells assessed as body weight at 60 mg/kg, ip administered once in a week for two weeks starting from 6 days post tumor transplantation and measured every 3 days during compound dosing for 15 days (reference value: 23.6 g); type: organism-based; conditions: in vivo, 360 h
A549 [16] = assay: Cell cycle arrest in human A549 cells assessed as accumulation at G2/M phase at 8 nM after 24 hrs by propidium iodide staining based flow cytometry (reference value: 8.36%); type: functional
Mus musculus [17] = assay: Antitumor activity in BALB/c nude mouse xenografted with human Bel7402 cells assessed as tumor volume at 30 mg/kg, ip administered once in a week for two weeks starting from 6 days post tumor transplantation measured every 3 days for 21 days (reference value: 511 mm3); conditions: in vivo, 504 h
A549 [18] = assay: Cell cycle arrest in human A549 cells assessed as accumulation at G0/G1 phase at 8 nM after 24 hrs by propidium iodide staining based flow cytometry (reference value: 58.84%); type: functional
Mus musculus [19] = assay: Toxicity in Kunming mouse implanted with mouse H22 cells assessed as body weight at 40 mg/kg, ip administered on day 1 and day 5 (reference value: 32.5 g); type: organism-based; conditions: in vivo
A549 [20] = assay: Induction of apoptosis in human A549 cells assessed as membrane blebbing after 24 hrs by phase contrast microscopy; type: functional, cell-based
A549 [21] = assay: Cell cycle arrest in human A549 cells assessed as accumulation at G2/M phase at 25 nM after 24 hrs by propidium iodide staining based flow cytometry (reference value: 8.36%); type: functional
Mus musculus [22] = assay: Toxicity in BALB/c nude mouse xenografted with human Bel7402 cells assessed as survival at 60 mg/kg, ip administered once in a week for two weeks starting from 6 days post tumor transplantation measured every 3 days for 21 days; type: organism-based; conditions: in vivo, 504 h
Mus musculus [23] = assay: Toxicity in Kunming mouse implanted with mouse H22 cells assessed as body weight at 60 mg/kg, ip administered twice (reference value: 31.1 g); type: organism-based; conditions: in vivo
Bel-7402 [24] = assay: Antitumor activity against human Bel7402 cells xenografted in BALB/c nude mouse assessed as tumor volume at 60 mg/kg, ip administered once in a week for two weeks starting from 6 days post tumor transplantation measured 27 to 30 days post tumor transplantation relative to control; type: functional
Bel-7402 [25] = assay: Antitumor activity against human Bel7402 cells xenografted in BALB/c nude mouse assessed as tumor growth inhibition at 60 mg/kg, ip administered once in a week for two weeks starting from 6 days post tumor transplantation measured 27 to 30 days post tumor transplantation relative to control; type: functional; conditions: Bel-7402, ip, read-out: TGI
Mus musculus [26] = assay: Toxicity in Kunming mouse implanted with mouse H22 cells assessed as body weight at 100 mg/kg, ip administered once (reference value: 31.1 g); type: organism-based; conditions: in vivo
A549 [27] = assay: Induction of apoptosis in human A549 cells assessed as necrotic cells at 75 nM after 24 hrs by Annexin V-FITC/propidium iodide staining based flow cytometry (reference value: 7.62%); type: functional
A549 [28] = assay: Induction of apoptosis in human A549 cells assessed as viable cells at 25 nM after 24 hrs by Annexin V-FITC/propidium iodide staining based flow cytometry (reference value: 89.41%); type: functional; conditions: A549, 24 h, read-out: Activity
BGC-823 [29] = assay: Antitumor activity against human BGC823 cells xenografted in BALB/c nude mouse assessed as tumor growth inhibition at 60 mg/kg, ip administered once in a week for two weeks starting from 6 days post tumor transplantation measured 27 to 30 days post tumor transplantation relative to control; type: functional; conditions: BGC-823, ip, read-out: TGI
A549 [30] = assay: Antiproliferative activity against human A549 cells after 96 hrs by MTT assay; type: functional, cell-based; conditions: A549, 96 h
Bel-7402 [31] = assay: Antitumor activity against human Bel7402 cells xenografted in BALB/c nude mouse assessed as tumor volume at 30 mg/kg, ip administered once in a week for two weeks starting from 6 days post tumor transplantation measured 27 to 30 days post tumor transplantation relative to control; type: functional

For CCc1c2c(nc3ccccc13)-c1cc3c(c(=O)n1C2)COC(=O)[C@@]3(CC)OC(=O)Cn1cc(F)c(=O)[nH]c1=O, the tumor volume (Mus musculus [1]) was 334 mm³, the Activity (A549 [2]) was 34.98% and the Activity (A549 [3]) was “Dose-dependent effect”. It also gave an Activity (Mus musculus [4]) of 19.1 g, an Activity (A549 [5]) of 10.07% and an Activity (A549 [6]) of 7.09%. For the same molecule, the IC50 (A2780) was 0.147 µM, the Activity (A549 [7]) was “Active” and the T/C (BGC-823 [8]) was 12.65%. The Activity (A549 [9]) was “Active”, the viability at 0.075 µM (A549 [10]) was 30.6% and the Activity (A549 [11]) was 23.7%. The Activity (A549 [12]) was 26.6%, the Activity (A549 [13]) was 21.17% and the Activity (Mus musculus [14]) was “Non-Toxic”. It also gave an Activity (Mus musculus [15]) of 21.9 g, an Activity (A549 [16]) of 31.21% and a tumor volume (Mus musculus [17]) of 231 mm³. The Activity (A549 [18]) was 32.28%, the Activity (Mus musculus [19]) was 27.3 g and the Activity (A549 [20]) was “Dose-dependent effect”. The Activity (A549 [21]) was 71.74%, the Activity (Mus musculus [22]) was “Non-Toxic” and the Activity (Mus musculus [23]) was 27.2 g. It also gave a T/C (Bel-7402 [24]) of 24.53%, an inhibition in vivo at 60 mg/kg (Bel-7402 [25]) of 81.5% and an Activity (Mus musculus [26]) of 29.8 g. The Activity (A549 [27]) was 10.77%, the viability at 0.025 µM (A549 [28]) was 53.4% and the inhibition in vivo at 60 mg/kg (BGC-823 [29]) was 96%. For the same molecule, the IC50 (A549 [30]) was 0.027 µM and the T/C (Bel-7402 [31]) was 41.17%.
